Data published in US20140179681A1, “METHODS AND COMPOSITIONS OF TARGETED DRUG DEVELOPMENT” (priority 2010, published 2014).
Structures can show the parent of a compound that is named as a salt. Where two headings read alike, the source gives them in different places.

What was measured:
[1] = tested on: MDBK line; assay: MTT Cell Proliferation Assay, MDBK cells; type: cell-based, bovine
Procedure, shortened: (§1)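 Viability was measured by mitochondrial MTT reduction after cells were exposed to compound for 3 days in reduced-serum medium. Inhibition was calculated per plate against 0.5% DMSO controls.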

[2] = tested on: epithelial carcinoma A431 cell line; assay: MTT Cell Proliferation Assay, A431 cells; type: cell-based; details: for MTT Assay IC50(A431/MDBK): ratio in parentheses: ratio MDBK IC50 / A431 IC50 (selectivity)
Procedure, shortened: as §1

[3] = biological target: T1, EGFR (Homo sapiens, UniProt P00533); assay: EGFR in-cell Western (ICW) screening protocol (EGFR inhibition assay); type: cell-based; set-up: ICW 1 / ICW 2 / ICW Avg: unit not given here; details: for ICW Avg / ICW 1 / ICW 2: ICW assay; for ICW Avg: average of runs 1 and 2; for ICW 1: run 1; for ICW 2: run 2; for ICW assay: Table 10
T1 construct: host or cells: A431
T1 sequence (P00533 25-1210): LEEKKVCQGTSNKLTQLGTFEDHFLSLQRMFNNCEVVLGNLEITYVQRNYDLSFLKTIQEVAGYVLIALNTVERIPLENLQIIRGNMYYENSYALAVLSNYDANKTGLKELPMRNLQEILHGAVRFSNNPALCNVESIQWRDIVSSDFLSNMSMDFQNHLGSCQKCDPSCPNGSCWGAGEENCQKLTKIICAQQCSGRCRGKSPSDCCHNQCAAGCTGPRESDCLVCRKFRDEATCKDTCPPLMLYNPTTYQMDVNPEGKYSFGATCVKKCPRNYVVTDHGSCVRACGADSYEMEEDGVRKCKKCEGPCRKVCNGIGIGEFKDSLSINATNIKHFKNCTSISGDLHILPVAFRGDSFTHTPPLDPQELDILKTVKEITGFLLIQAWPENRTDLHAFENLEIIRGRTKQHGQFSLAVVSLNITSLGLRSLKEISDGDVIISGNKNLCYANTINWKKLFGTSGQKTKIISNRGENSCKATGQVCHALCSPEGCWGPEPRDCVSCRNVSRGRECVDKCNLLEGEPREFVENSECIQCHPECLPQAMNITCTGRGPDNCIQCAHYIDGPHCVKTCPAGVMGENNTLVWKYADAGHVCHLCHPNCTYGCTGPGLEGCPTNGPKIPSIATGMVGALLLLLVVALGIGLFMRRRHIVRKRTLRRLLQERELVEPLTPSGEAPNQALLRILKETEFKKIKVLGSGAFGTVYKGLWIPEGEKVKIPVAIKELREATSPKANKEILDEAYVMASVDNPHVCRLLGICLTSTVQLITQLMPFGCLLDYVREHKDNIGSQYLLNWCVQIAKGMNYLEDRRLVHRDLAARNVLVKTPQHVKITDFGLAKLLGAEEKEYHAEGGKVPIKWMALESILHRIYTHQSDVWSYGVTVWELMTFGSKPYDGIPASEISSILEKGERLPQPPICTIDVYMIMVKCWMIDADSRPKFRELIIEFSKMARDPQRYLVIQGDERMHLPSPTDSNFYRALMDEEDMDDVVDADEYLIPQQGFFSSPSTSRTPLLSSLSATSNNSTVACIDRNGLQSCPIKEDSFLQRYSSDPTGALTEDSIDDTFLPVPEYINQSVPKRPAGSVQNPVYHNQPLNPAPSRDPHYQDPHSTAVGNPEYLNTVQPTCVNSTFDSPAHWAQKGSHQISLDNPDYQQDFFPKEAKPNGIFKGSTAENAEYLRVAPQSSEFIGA
Procedure, shortened: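 Serum-starved A431 cells (2 h) were pretreated with compound for 4 h at 37° C, then stimulated with EGF (10 ng/ml final, or 6.6 or 12.5 ng/ml in some runs) for 10 min. After formaldehyde fixation, phospho-EGFR (Tyr1173, or Tyr1045 in some runs) and total EGFR were detected by in-cell Western immunostaining.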

[4] = Bos taurus, MDBK, second value of 'a/b (c)', taken as MDBK cells, read-out: MTT Screen, second value of cell
[5] = Homo sapiens, A-431, first value of 'a/b (c)', taken as A431 cells, read-out: MTT Screen, first value of cell
[6] = Bos taurus, MDBK, MDBK cells, second value of cell, read-out: MTT Assay IC50(A431/MDBK): MDBK
[7] = Homo sapiens, A-431, A431 cells, first value of cell, read-out: MTT Assay IC50(A431/MDBK): A431
[8] = second value of 'a/b (c)', taken as MDBK cells, read-out: MTT Screen, second value of cell
[9] = first value of 'a/b (c)', taken as A431 cells, read-out: MTT Screen, first value of cell
[10] = Bos taurus, MDBK, 72 h, Table 10, second of x/y(ratio): MDBK, three day treatment, unit not printed (doses in μM), read-out: MTT assay (second value)
[11] = Homo sapiens, A-431, 72 h, Table 10, first of x/y(ratio): A431, three day treatment, unit not printed (doses in μM), read-out: MTT assay (first value)
[12] = % Inhibition of EGF dependent EGFR phosphorylation in A431 cells, compound 125 μM in assay
[13] = MDBK cells, second value of cell, read-out: MTT Assay IC50(A431/MDBK): MDBK
[14] = A431 cells, first value of cell, read-out: MTT Assay IC50(A431/MDBK): A431

Compound	ICW Screen (ICW Inhibition) [3]	IC50 [1, 6] [µM]	IC50 [2, 7] [µM]	MTT Assay IC50(A431/MDBK): ratio in parentheses [2]	ICW Avg [3]	ICW 1 [3]	ICW 2 [3]	other results
Cc1cc(C)nc(NS(=O)(=O)c2ccc(NC(=S)NC(=O)/C=C/c3ccc(F)cc3)cc2)n1 [AD4-11871]	45.776	–	–	–	–	–	–	IC50 [1, 4]: 41.8 µM; IC50 [2, 5]: 49.7 µM
CCCC(=O)NC(=S)Nc1ccc(S(=O)(=O)Nc2ccc(OCC)cc2)cc1 [AD4-12183]	37.695	–	–	–	–	–	–	IC50 [1, 4]: 17.2 µM; IC50 [2, 5]: 25.6 µM
Cc1nc(Nc2ncc3c(n2)CC(c2ccco2)CC3=O)nc2ccccc12 (centres unmarked) [11679 + TFA]	–	8.73	12.6	0.70	25.83	31.02	20.64	–
O=C(NC(=S)Nc1ccc(S(=O)(=O)Nc2ccccc2)cc1)C1CC1 [AD4-11413]	46.23	–	–	–	–	–	–	IC50 [1, 8]: 29.8 µM; IC50 [2, 9]: 31.4 µM
CCOc1cccc2c(C)nc(Nc3nc(C)c(C)c(=O)[nH]3)nc12 [12735 + TFA]	–	15.3	17.9	0.85	64.72	69.46	59.98	–
Cc1ccccc1NS(=O)(=O)c1ccc(NC(=S)Nc2ccc(F)c(Cl)c2)cc1 [AD4-12477]	–	–	–	–	–	–	–	IC50 [1, 10]: 5.44 µM; IC50 [2, 11]: 6.65 µM; ICW assay [3, 12]: 44.2167
Cc1cc(C)nc(Nc2nc(-c3ccccc3)c3cc(Cl)ccc3n2)n1 [compound 11316]	–	19.9	44.4	0.45	50.76	47.95	53.57	–
Cc1nc(Nc2nc(=O)cc(-c3ccccc3)[nH]2)nc2c(C)cccc12 [compound 11624]	–	22.4	14	1.59	26.08	22.54	29.61	–
COc1cc(NS(=O)(=O)c2ccc(NC(=S)NC(=O)/C=C/c3ccc(C(C)C)cc3)cc2)nc(OC)n1 [AD4-11638]	68.754	–	–	–	–	–	–	IC50 [1, 4]: 14.9 µM; IC50 [2, 5]: 11.2 µM
Cc1cccc(Cc2c(C)nc(Nc3nc(C)c4cccc(C)c4n3)[nH]c2=O)c1 [11754 + TFA]	–	7.55	5.58	1.35	29.97	34.09	25.85	–
Cc1cc2nc(Nc3nc(=O)c(C)c(C)[nH]3)nc(C)c2cc1C [12630 + TFA]	–	8.75	11.7	0.75	26.02	17.06	34.97	–
CCCc1cc(=O)[nH]c(Nc2nc(C)c3cc(C)c(C)cc3n2)n1 [12673 + TFA]	–	–	–	0.68	52.80	44.70	60.90	IC50 [1, 13]: 22.5 µM; IC50 [2, 14]: 33.1 µM
CCCCc1c(C)nc(Nc2nc(C)c3ccc(C)cc3n2)[nH]c1=O [12776 + TFA]	–	19	29.7	0.64	25.32	21.34	29.30	–
COc1cccc2c(C)nc(Nc3nc4c(c(=O)[nH]3)CCCC4)nc12 [11484 + TFA]	–	9.72	11.3	0.86	70.65	67.84	73.46	–
CC(C)c1ccc2oc(=O)cc(CN3CCN(C/C=C/c4ccccc4)CC3)c2c1 [AD4-10188]	–	–	–	–	–	–	–	IC50 ([1]; Bos taurus, MDBK, Table 11, second of x/y(ratio): MDBK, unit not printed (doses in μM), read-out: MTT Screen (second value)): 16.3 µM; IC50 ([2]; Homo sapiens, A-431, Table 11, first of x/y(ratio): A431, unit not printed (doses in μM), read-out: MTT Screen (first value)): 9.05 µM; ICW Screen ([3]; Table 11, % Inhibition of EGF dependent EGFR phosphorylation in A431 cells, compound 125 μM in assay): 53.35
CC(=O)c1cccc(NC(=S)Nc2ccc(S(=O)(=O)N3c4ccc(F)cc4CCC3C)cc2)c1 (centres unmarked) [AD4-12825]	–	–	–	–	–	–	–	IC50 [1, 10]: 5.46 µM; IC50 [2, 11]: 6.78 µM; ICW assay [3, 12]: 26.7866
Cc1ccc2nc(Nc3nc(=O)cc(CSc4ccc(Cl)cc4)[nH]3)nc(C)c2c1 [11826 + TFA]	–	43.3	49.4	0.88	37.16	40.52	33.80	–
Cc1ccc(NS(=O)(=O)c2ccc(NC(=S)NC(=O)C3CC3)cc2)c(C)c1 [AD4-12097]	48.543	–	–	–	–	–	–	IC50 [1, 4]: 9.85 µM; IC50 [2, 5]: 15.1 µM
Cc1ccc(NC(=S)Nc2ccc(S(=O)(=O)Nc3ccc(Cl)cc3)cc2)cc1 [AD4-12413]	–	–	–	–	–	–	–	IC50 [1, 10]: 6.35 µM; IC50 [2, 11]: 6.83 µM; ICW assay [3, 12]: 35.1946
O=C(NC(=S)Nc1ccc(S(=O)(=O)Nc2ccccc2)cc1)C1CCC1 [AD4-12044]	34.334	–	–	–	–	–	–	IC50 [1, 4]: 33.1 µM; IC50 [2, 5]: 63.2 µM
COc1ccc(/C=C/C(=O)NC(=S)Nc2ccc(S(=O)(=O)Nc3cc(C)on3)cc2)cc1 [AD4-11867]	32.432	–	–	–	–	–	–	IC50 [1, 4]: 48.1 µM; IC50 [2, 5]: 51 µM
Cc1cccc(NC(=S)Nc2ccc(S(=O)(=O)Nc3cc(Cl)cc(Cl)c3)cc2)c1 [AD4-12472]	–	–	–	–	–	–	–	IC50 [1, 10]: 5.42 µM; IC50 [2, 11]: 6.23 µM; ICW assay [3, 12]: 64.2647
Cc1ccc(NS(=O)(=O)c2ccc(NC(=S)NC(=O)C3CCC3)cc2)cc1C [AD4-10676]	59.637	–	–	–	–	–	–	IC50 [1, 4]: 8.84 µM; IC50 [2, 9]: 18.6 µM
Cc1ccc(NS(=O)(=O)c2ccc(NC(=S)NC(=O)C3CCCCC3)cc2)cc1C [AD4-11417]	40.711	–	–	–	–	–	–	IC50 [1, 8]: 49.3 µM; IC50 [2, 9]: 25.5 µM
CN1CCN(S(=O)(=O)c2ccc(NC(=S)NC(=O)/C=C/c3ccc(F)cc3)cc2)CC1 [AD4-12107]	41.933	–	–	–	–	–	–	MTT Screen, second value of cell ([1]; second value of 'a/b (c)', taken as MDBK cells): non- conver- gent; IC50 [2, 5]: 14.1 µM
CCc1c(C)nc(Nc2nc(C)c3cccc(OC)c3n2)[nH]c1=O [compound 12613]	–	–	–	0.65	52.18	47.72	56.65	IC50 [1, 13]: 11.5 µM; IC50 [2, 14]: 17.6 µM
CCOC(=O)c1c(N)nc(Nc2nc(C)c3cc(C)c(C)cc3n2)nc1-c1ccccc1 [compound 11825]	–	17.9	4.06	–	54.02	52.17	55.87	–
Cc1ccc(NC(=S)Nc2ccc(S(=O)(=O)Nc3cc(Cl)cc(Cl)c3)cc2)cc1C [AD4-12400]	–	–	–	–	–	–	–	IC50 [1, 10]: 5.77 µM; IC50 [2, 11]: 4.05 µM; ICW assay [3, 12]: 69.4793
CC(=O)c1cccc(NC(=S)Nc2ccc(S(=O)(=O)Nc3c(C)cc(C)cc3C)cc2)c1 [AD4-12391]	–	–	–	–	–	–	–	IC50 [1, 10]: 9.09 µM; IC50 [2, 11]: 11.1 µM; ICW assay [3, 12]: 37.4191
